{
  "source": "paper PMC7875911",
  "about": "(Frontiers in Pharmacology, 2021)",
  "key": {"[1]": {"test_system": "rCav1.3", "experiment": "Whole-cell patch clamp, recombinant rCav1.3 in HEK293", "type": "cell-based, rat", "settings": "10 µM", "description": "Human embryonic kidney (HEK293T) cells containing the SV40 Large T-antigen were cultured at 37°C, 5% CO2 in Dulbecco’s Modified Eagle’s Medium (DMEM, Invitrogen Life Technologies, Australia), supplemented with 10% fetal bovine serum (FBS, Bovigen, Australia), 1% GlutaMAX and penicillin-streptomycin (Invitrogen, Australia). […]\n(§1) Depolarization-activated Ca^2+ currents (ICa) in transfected HEK293 cells were recorded in the whole-cell patch clamp configuration. Data were recorded using a MultiClamp 700B amplifier, digitized with a DigiData1440 and controlled using Clampex10.7 software (Molecular Devices, United States). […]\n(§2) Statistical significance (p < 0.05) was determined using unpaired Student’s t-test or 1-way ANOVA followed by a Tukey multiple comparison. […]\nNumerous HVA Cav channel isoforms are present in rat DRG neurons. […] We transiently co-transfected the individual Cav channel α-subunits of interest together with β3 and α2δ1 subunits in HEK293 cells and measured whole-cell I Ca currents by patch clamp. […]"}, "[2]": {"target": "T1, hCav2.2 (Homo sapiens, UniProt Q00975)", "T1 construct": "expressed in transfected cells; host or cells: HEK293 (HEK293T), transient calcium phosphate co-transfection", "T1 sequence (P54289 25-956)": "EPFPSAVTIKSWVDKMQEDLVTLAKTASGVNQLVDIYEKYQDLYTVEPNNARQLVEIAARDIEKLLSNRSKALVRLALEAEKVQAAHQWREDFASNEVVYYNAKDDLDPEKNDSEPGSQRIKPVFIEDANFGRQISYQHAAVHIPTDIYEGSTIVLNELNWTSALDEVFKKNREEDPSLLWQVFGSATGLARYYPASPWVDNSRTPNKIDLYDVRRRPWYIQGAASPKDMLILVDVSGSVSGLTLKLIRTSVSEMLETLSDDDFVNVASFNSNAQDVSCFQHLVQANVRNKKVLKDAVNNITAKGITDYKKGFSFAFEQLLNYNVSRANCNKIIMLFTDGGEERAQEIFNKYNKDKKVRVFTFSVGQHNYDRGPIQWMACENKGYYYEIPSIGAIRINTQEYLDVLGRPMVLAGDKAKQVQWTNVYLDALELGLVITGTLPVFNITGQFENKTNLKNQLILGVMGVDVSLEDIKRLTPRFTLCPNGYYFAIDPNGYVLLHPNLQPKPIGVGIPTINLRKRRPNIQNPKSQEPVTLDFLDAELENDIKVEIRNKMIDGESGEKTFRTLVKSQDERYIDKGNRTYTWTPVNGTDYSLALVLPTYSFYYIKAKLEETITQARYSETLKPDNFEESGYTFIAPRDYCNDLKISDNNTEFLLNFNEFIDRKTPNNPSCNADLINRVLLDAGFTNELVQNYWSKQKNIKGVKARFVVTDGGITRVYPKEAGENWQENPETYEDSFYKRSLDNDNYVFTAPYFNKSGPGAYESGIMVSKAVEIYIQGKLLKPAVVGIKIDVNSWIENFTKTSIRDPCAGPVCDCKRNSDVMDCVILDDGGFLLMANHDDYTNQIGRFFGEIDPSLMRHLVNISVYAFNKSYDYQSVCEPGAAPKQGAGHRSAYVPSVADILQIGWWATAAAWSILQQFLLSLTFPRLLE", "T1 sequence (P54289 957-1103)": "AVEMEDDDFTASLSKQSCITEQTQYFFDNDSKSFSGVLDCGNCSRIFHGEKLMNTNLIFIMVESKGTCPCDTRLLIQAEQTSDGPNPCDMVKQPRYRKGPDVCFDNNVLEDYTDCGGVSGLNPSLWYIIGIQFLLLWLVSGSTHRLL", "T1 sequence (Q00975 whole entry)": "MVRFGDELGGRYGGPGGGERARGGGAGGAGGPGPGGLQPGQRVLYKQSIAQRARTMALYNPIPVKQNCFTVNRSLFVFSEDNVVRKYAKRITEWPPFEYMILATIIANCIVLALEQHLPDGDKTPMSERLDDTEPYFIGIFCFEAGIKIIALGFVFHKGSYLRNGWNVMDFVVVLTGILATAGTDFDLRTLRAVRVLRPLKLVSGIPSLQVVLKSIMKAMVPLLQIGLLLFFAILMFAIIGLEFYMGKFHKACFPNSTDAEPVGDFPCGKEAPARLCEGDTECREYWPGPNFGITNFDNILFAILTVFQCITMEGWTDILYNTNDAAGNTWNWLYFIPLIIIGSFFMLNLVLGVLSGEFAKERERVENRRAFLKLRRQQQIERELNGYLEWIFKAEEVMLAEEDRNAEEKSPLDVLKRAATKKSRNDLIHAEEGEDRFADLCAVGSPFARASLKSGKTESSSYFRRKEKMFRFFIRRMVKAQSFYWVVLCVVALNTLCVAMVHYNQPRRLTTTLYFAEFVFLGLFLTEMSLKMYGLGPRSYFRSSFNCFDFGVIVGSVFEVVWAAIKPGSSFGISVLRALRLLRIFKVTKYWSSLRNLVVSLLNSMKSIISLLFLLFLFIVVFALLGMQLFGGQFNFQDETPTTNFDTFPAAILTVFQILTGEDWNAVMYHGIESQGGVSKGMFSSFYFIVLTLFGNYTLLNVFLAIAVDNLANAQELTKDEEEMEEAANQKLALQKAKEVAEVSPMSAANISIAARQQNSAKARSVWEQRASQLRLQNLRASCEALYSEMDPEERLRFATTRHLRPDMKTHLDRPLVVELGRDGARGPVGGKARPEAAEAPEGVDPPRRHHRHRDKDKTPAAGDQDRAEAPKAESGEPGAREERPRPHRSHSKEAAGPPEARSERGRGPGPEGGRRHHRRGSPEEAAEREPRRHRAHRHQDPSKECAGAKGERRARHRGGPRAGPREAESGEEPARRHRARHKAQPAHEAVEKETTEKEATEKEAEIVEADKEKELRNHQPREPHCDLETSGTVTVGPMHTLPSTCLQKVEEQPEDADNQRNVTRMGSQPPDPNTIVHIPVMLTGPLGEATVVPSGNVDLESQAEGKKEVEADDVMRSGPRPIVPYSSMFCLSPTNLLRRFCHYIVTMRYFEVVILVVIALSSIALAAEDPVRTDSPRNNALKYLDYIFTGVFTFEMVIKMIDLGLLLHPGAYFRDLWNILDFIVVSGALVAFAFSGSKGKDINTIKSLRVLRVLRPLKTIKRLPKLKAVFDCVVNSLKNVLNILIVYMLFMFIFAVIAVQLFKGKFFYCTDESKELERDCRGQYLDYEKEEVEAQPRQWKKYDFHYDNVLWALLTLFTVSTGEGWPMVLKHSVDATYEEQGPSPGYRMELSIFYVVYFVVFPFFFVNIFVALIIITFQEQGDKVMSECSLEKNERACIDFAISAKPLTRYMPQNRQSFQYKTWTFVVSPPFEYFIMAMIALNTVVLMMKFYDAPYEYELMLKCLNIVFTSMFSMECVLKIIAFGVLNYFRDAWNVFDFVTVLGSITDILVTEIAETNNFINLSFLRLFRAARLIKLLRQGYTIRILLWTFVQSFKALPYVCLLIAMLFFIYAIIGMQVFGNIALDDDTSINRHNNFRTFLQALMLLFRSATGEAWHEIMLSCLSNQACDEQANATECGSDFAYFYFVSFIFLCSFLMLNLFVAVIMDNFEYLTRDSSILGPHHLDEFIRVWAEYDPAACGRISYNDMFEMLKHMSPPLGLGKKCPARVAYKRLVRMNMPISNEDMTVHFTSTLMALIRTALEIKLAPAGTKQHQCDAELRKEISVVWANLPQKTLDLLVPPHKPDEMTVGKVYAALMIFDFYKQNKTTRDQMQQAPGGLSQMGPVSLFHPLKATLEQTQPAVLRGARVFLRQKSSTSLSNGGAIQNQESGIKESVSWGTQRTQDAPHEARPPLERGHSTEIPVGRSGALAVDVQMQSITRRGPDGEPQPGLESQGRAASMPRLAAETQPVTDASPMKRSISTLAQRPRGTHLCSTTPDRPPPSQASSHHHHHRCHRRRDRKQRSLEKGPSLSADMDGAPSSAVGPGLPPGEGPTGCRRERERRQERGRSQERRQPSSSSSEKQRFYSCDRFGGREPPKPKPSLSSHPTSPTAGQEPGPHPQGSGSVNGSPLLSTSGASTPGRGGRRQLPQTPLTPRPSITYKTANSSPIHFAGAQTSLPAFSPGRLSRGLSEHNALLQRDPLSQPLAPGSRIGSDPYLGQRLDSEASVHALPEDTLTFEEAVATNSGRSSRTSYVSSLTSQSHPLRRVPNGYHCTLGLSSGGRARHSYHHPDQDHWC", "T1 sequence (P54284 whole entry, further chain)": "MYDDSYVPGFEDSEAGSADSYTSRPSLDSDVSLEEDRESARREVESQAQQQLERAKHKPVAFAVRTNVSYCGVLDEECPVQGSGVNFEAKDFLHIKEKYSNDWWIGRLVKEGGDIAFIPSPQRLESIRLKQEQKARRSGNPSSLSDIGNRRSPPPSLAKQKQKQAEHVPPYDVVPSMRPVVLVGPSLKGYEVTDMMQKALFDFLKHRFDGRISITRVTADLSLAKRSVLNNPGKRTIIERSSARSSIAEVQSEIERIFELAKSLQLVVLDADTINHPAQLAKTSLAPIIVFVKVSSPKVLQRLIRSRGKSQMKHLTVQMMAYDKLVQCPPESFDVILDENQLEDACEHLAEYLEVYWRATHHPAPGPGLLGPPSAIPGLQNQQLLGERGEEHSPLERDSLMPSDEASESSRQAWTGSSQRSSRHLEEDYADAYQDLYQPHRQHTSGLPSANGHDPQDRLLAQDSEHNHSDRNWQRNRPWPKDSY", "experiment": "hCav2.2 steady-state inactivation (SSI)", "type": "cell-based", "description": "Human embryonic kidney (HEK293T) cells containing the SV40 Large T-antigen were cultured at 37°C, 5% CO2 in Dulbecco’s Modified Eagle’s Medium (DMEM, Invitrogen Life Technologies, Australia), supplemented with 10% fetal bovine serum (FBS, Bovigen, Australia), 1% GlutaMAX and penicillin-streptomycin (Invitrogen, Australia). HEK293 cells were then transiently co-transfected with the different voltage-gated calcium channel isoforms and green fluorescent protein (GFP) for visualization, using the calcium phosphate method. cDNAs encoding mCav1.2 (a gift from Dr. D. Lipscombe; Addgene plasmid #26572) ([Helton et al., 2005]), rCav1.3 (a gift from Dr. D. Lipscombe; Addgene plasmid # 49,333) ([Xu and Lipscombe, 2001]), hCav2.1 (a gift from Dr. J. Striessnig), rCav2.2 (a gift from Dr. D. Lipscombe), hCav2.2 (a gift from Dr. D. Yue), hCav2.3 (purchased from GenScript United States Inc.) were co-transfected with β3, α2δ1 and GFP. […]\nas §1, §2"}, "[3]": {"test_system": "c-fibre evoked excitatory post-synaptic currents", "settings": "cited from earlier work"}, "[4]": {"test_system": "TTXs-I Na in small-diameter IB4 ^− DRG neurons", "settings": "cited from earlier work"}, "[5]": {"target": "T1, hCav2.2", "experiment": "hCav2.2 voltage dependence of activation", "type": "cell-based", "description": "Human embryonic kidney (HEK293T) cells containing the SV40 Large T-antigen were cultured at 37°C, 5% CO2 in Dulbecco’s Modified Eagle’s Medium (DMEM, Invitrogen Life Technologies, Australia), supplemented with 10% fetal bovine serum (FBS, Bovigen, Australia), 1% GlutaMAX and penicillin-streptomycin (Invitrogen, Australia). HEK293 cells were then transiently co-transfected with the different voltage-gated calcium channel isoforms and green fluorescent protein (GFP) for visualization, using the calcium phosphate method. cDNAs encoding mCav1.2 (a gift from Dr. D. Lipscombe; Addgene plasmid #26572) ([Helton et al., 2005]), rCav1.3 (a gift from Dr. D. Lipscombe; Addgene plasmid # 49,333) ([Xu and Lipscombe, 2001]), hCav2.1 (a gift from Dr. J. Striessnig), rCav2.2 (a gift from Dr. D. Lipscombe), hCav2.2 (a gift from Dr. D. Yue), hCav2.3 (purchased from GenScript United States Inc.) were co-transfected with β3, α2δ1 and GFP. After transfection, cells were plated on 12 mm cover glass and transferred to a 30°C incubator for 1–3 days.\nDepolarization-activated Ca^2+ currents (ICa) in transfected HEK293 cells were recorded in the whole-cell patch clamp configuration. Data were recorded using a MultiClamp 700B amplifier, digitized with a DigiData1440 and controlled using Clampex10.7 software (Molecular Devices, United States). Currents were sampled at 100 kHz and filtered to 10 kHz, with leak and capacitive currents subtracted using a −P/4 protocol. […] Intracellular recording solution contained as follows (mM): 140 KGluconate, 5 NaCl, 2 MgCl2, 5 EGTA and 10 HEPES, pH 7.2 with KOH. Cells were continuously perfused with extracellular solution at a rate of ∼1.2 ml/min. […] Activation curves of hCav2.2 were generated through a series of test pulses (50 ms) ranging from −30 to +50 mV (Δ5 mV) every 5 s with a holding potential of −90 mV. […]\nas §2"}, "[6]": {"test_system": "Nav1.7", "settings": "cited from earlier work", "description": "Loss-of-function mutation of the SCN9A gene that codes for Nav1.7 leads to congenital insensitivity to pain ([Cox et al., 2006]), whereas SCN9A gain-of-function mutations causes paroxysmal extreme pain disorder and primary erythromelalgia ([Dib-Hajj et al., 2008]). […] Homology of VGIC voltage sensing domains, and particularly those of Nav channels, is at the crux of the development of genuinely selective Nav1.7 modulators ([Kingwell, 2019]). Given the VSD functional importance in neuronal VGICs and their structural homology, it is not surprising that VDPs target related channel families. […] Mammalian Nav and Cav α-subunits are structurally homologous but differ in their gating mechanisms ([Kubota et al., 2017])."}},
  "note": "Entries after “also recorded” stand apart in the source; their conditions may differ.",
  "data": [
    {"smiles": "CSCC[C@@H]1NC(=O)[C@H](Cc2ccc(O)cc2)NC(=O)[C@H](CCCNC(=N)N)NC(=O)[C@@H](NC(=O)[C@@H](N)CC(=O)O)CSSC[C@@H]2NC(=O)[C@@H]3CSSC[C@@H](C(=O)N[C@@H](C)C(=O)N[C@@H](Cc4c[nH]c5ccccc45)C(=O)N[C@@H](CC(=O)O)C(=O)N[C@@H](Cc4ccccc4)C(=O)N[C@H](C(=O)N[C@@H](Cc4ccccc4)C(=O)N[C@H](C(=O)O)[C@@H](C)O)[C@@H](C)O)NC(=O)[C@H](Cc4ccc(O)cc4)NC(=O)[C@H](CCCCN)NC(=O)[C@H](CCSC)NC(=O)[C@H](CCCCN)NC(=O)[C@H](CCCNC(=N)N)NC(=O)[C@H](CCCCN)NC(=O)[C@H](CSSC[C@H](NC(=O)[C@H](CC(=O)O)NC(=O)CNC(=O)[C@H](Cc4ccccc4)NC1=O)C(=O)N[C@@H](CCC(=O)O)C(=O)N[C@@H](CCCCN)C(=O)N[C@@H](CC(=O)O)C(=O)N[C@@H](CCC(=O)O)C(=O)N[C@@H](CC(=O)O)C(=O)N3)NC(=O)CNC(=O)[C@H](CC(C)C)NC(=O)[C@H](Cc1c[nH]cn1)NC(=O)[C@H](CCCCN)NC2=O", "note": "[Pn3a, µ-Theraphotoxin-Pn3a]", "values": [
      {"measurement": "inhibition of Cav1.3-mediated current", "setting": "[1]", "value": "65.6 ± 1.8", "unit": "%"},
      {"measurement": "V0.5 of steady-state inactivation", "setting": "[2]", "value": "−69.8 ± 0.3", "unit": "mV"},
      {"measurement": "slope factor ka of steady-state inactivation", "setting": "[2]", "value": "10.5 ± 0.3"},
      {"measurement": "effect on c-fibre evoked excitatory post-synaptic currents (in words)", "setting": "[3]", "value": "reduce c-fibre evoked excitatory post-synaptic currents"},
      {"measurement": "suppression of TTXs-I Na (in words)", "setting": "[4]", "value": "strongly suppress"},
      {"measurement": "V0.5 of activation", "setting": "[5]", "value": "11.7 ± 0.1", "unit": "mV"},
      {"measurement": "effect on voltage dependence of activation (in words)", "setting": "[5]", "value": "slightly shifted; also recorded: without apparent changes in channel activation"},
      {"measurement": "slope factor ka of activation", "setting": "[5]", "value": "3.7 ± 0.1"},
      {"measurement": "effect on Nav1.7 SSI (in words)", "setting": "[6]", "value": "[…]"},
      {"measurement": "effect on Nav1.7 voltage dependence of activation (in words)", "setting": "[6]", "value": "[…]"},
      {"measurement": "time to steady-state Nav1.7 block", "setting": "[6]", "value": "[…]"},
      {"measurement": "IC50", "setting": "[6]; read-out: IC 50 for Nav1.7", "value": "[…]"}
    ]}
  ]
}
